The source of these data is US11891365B2, “3-alkyl-4-amido-bicyclic [4,5,0] hydroxamic acids as HDAC inhibitors” (Valo Health, Inc., priority 2015, dated 2024).

For the assay, the target named is T1, Full length human recombinant HDAC6 protein (Homo sapiens, UniProt Q9UBN7).
T1 sequence (Q9UBN7 1-1215): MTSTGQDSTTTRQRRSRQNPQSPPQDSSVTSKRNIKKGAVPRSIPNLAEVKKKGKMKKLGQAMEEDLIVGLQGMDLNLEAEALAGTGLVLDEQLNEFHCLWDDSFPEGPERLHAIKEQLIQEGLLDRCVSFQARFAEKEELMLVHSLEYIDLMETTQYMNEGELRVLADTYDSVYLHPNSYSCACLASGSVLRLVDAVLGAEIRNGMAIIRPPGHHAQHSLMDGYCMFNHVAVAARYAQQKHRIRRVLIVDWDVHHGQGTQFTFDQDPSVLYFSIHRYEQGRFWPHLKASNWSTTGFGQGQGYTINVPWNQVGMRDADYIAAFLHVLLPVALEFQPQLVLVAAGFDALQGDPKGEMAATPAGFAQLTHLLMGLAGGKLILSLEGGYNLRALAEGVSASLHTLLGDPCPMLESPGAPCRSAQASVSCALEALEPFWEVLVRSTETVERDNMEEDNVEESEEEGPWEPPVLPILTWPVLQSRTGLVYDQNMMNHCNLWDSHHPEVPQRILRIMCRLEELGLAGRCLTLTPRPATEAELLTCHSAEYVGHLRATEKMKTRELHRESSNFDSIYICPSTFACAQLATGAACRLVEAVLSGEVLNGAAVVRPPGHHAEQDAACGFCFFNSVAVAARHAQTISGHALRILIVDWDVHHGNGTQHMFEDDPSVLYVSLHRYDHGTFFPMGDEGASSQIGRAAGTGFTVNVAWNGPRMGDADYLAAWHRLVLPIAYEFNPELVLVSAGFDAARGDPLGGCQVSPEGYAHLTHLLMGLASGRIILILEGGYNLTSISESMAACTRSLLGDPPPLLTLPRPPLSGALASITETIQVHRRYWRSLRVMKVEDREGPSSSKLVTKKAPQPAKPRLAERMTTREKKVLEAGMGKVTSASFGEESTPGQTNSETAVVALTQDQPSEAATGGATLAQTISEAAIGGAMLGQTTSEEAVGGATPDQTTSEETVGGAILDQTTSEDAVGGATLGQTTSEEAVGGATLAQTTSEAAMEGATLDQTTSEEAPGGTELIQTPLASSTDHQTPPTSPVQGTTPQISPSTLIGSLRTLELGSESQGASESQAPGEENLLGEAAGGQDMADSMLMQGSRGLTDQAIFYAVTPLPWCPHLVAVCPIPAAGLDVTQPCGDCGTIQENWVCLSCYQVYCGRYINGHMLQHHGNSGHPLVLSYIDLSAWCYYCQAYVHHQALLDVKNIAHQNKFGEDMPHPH
Briefly: In vitro histone deacetylase assay: enzymatic HDAC6 electrophoretic mobility shift assay. The format is biochemical. The note with it: 1 nM enzyme, 2 μM peptide substrate RHKK(Ac)-NH2, 25° C., 12 concentrations; read-out: Inhibitory Concentration (IC50) Values against HDAC6, Activity Range. (In general: A gel shift assay detects complexes by their altered migration in electrophoresis.)

`C[C@H]1COc2cc(C(=O)NO)ccc2CN1C(=O)C1CS(=O)(=O)C1` [(S)-4-(1,1-dioxidothietane-3-carbonyl)-N-hydroxy-3-methyl-2,3,4,5-tetrahydrobenzo[f][1,4]oxazepine-8-carboxamide]: the IC50 is not above 100 nM. The figure for `O=C(NO)c1ccc2c(c1)OCCN(C(=O)C1CC3CCC(C1)O3)C2` (centres unmarked) [4-(8-oxabicyclo[3.2.1]octane-3-carbonyl)-N-hydroxy-2,3,4,5-tetrahydrobenzo[f][1,4]oxazepine-8-carboxamide] is not above 100 nM; for `CC1(C(=O)N2CC(=O)Nc3ccc(C(=O)NO)cc3C2)CCC1` [N-hydroxy-4-(1-methylcyclobutane-1-carbonyl)-2-oxo-2,3,4,5-tetrahydro-1H-benzo[e][1,4]diazepine-7-carboxamide] it is 100 to 500 nM; for `O=C(NO)c1ccc2c(c1)OCCN(C(=O)C1CCC(F)(F)C1)C2` (centres unmarked) [4-(3,3-difluorocyclopentane-1-carbonyl)-N-hydroxy-2,3,4,5-tetrahydrobenzo[f][1,4]oxazepine-8-carboxamide] it is not above 100 nM. The value for `C[C@H]1COc2cc(C(=O)NO)ccc2CN1C(=O)C1(C)CCOCC1` [(S)-N-hydroxy-3-methyl-4-(4-methyltetrahydro-2H-pyran-4-carbonyl)-2,3,4,5-tetrahydrobenzo[f][1,4]oxazepine-8-carboxamide] was not above 100 nM; that for `CC(C)C(=O)N1Cc2ccc(C(=O)NO)cc2OC[C@@H]1C` [(S)-N-hydroxy-4-isobutyryl-3-methyl-2,3,4,5-tetrahydrobenzo[f][1,4]oxazepine-8-carboxamide] was not above 100 nM. The figure for `COCC1(C(=O)N2CCOc3cc(C(=O)NO)ccc3C2)CCC1` [N-hydroxy-4-(1-(methoxymethyl)cyclobutane-1-carbonyl)-2,3,4,5-tetrahydrobenzo[f][1,4]oxazepine-8-carboxamide] is not above 100 nM. For the molecule `O=C(NO)c1ccc2c(c1)OCCN(C(=O)c1ccc(Oc3ccccc3)cc1)C2` [N-hydroxy-4-(4-phenoxybenzoyl)-2,3,4,5-tetrahydrobenzo[f][1,4]oxazepine-8-carboxamide], the IC50 was not above 100 nM. The figure for `COCC1(C(=O)N2CCOc3cc(C(=O)NO)ccc3[C@@H]2C)COC1` [(S)-N-hydroxy-4-(3-(methoxymethyl)oxetane-3-carbonyl)-5-methyl-2,3,4,5-tetrahydrobenzo[f][1,4]oxazepine-8-carboxamide] is not above 100 nM. The figure for `CC(C)[C@@H]1CN(C(=O)C2CCOCC2)Cc2ccc(C(=O)NO)cc2O1` [(R)-N-hydroxy-2-isopropyl-4-(tetrahydro-2H-pyran-4-carbonyl)-2,3,4,5-tetrahydrobenzo[f][1,4]oxazepine-8-carboxamide] is 100 to 500 nM; for `C[C@H]1COc2cc(C(=O)NO)ccc2CN1C(=O)C1(C)CCCO1` (stereo partly drawn) [(3S)-N-hydroxy-3-methyl-4-(2-methyltetrahydrofuran-2-carbonyl)-2,3,4,5-tetrahydrobenzo[f][1,4]oxazepine-8-carboxamide] it is not above 100 nM; for `O=C(NO)c1ccc2c(c1)OCCN(C(=O)CCc1ccccc1)C2` [N-hydroxy-4-(3-phenylpropanoyl)-2,3,4,5-tetrahydrobenzo[f][1,4]oxazepine-8-carboxamide] it is not above 100 nM. As for `O=C(NO)c1ccc2c(c1)OCCN(C(=O)C(O)(c1ccccc1)C1CCCC1)C2` (centres unmarked) [4-(2-cyclopentyl-2-hydroxy-2-phenylacetyl)-N-hydroxy-2,3,4,5-tetrahydrobenzo[f][1,4]oxazepine-8-carboxamide], the IC50 is more than 500 nM.

With `C[C@H]1COc2cc(C(=O)NO)ccc2CN1C(=O)[C@H]1CCCOC1` [(S)-N-hydroxy-3-methyl-4-((S)-tetrahydro-2H-pyran-3-carbonyl)-2,3,4,5-tetrahydrobenzo[f][1,4]oxazepine-8-carboxamide], the IC50 was not above 100 nM. The value for `C[C@H]1COc2cc(C(=O)NO)ccc2CN1C(=O)CCOc1ccc(F)cc1` [(S)-4-(3-(4-fluorophenoxy)propanoyl)-N-hydroxy-3-methyl-2,3,4,5-tetrahydrobenzo[f][1,4]oxazepine-8-carboxamide] was not above 100 nM. With `COc1ccc(C(=O)N2CCOc3cc(C(=O)NO)ccc3C2)c(OC)c1` [4-(2,4-dimethoxybenzoyl)-N-hydroxy-2,3,4,5-tetrahydrobenzo[f][1,4]oxazepine-8-carboxamide], the IC50 lay within 100 to 500 nM. The figure for `O=C(NO)c1ccc2c(c1)OCCN(C(=O)c1ccc3[nH]ccc3c1)C2` [N-hydroxy-4-(1H-indole-5-carbonyl)-2,3,4,5-tetrahydrobenzo[f][1,4]oxazepine-8-carboxamide] is not above 100 nM.
